Data taken from PMC10892871 (Viruses, 2024).
Where two headings read alike, the source gives them in different places.

Experiments:
[1] = system: VERO E6 cells
[2] = in vitro; details: monkey
[3] = system: wild type B.1 SARS-CoV-2; assay type: cell-based
[4] = DAA, concentration causing 10% cytotoxicity

| Compound | CC10 Mean ± SD [1, 4] [µM] | CC50 [2] [µM] | IC90 vs. B.1 Mean ± SD [3] [µg/mL] | CC10 Mean ± SD ([1]; mAb) [µg/mL] | CC50 Mean ± SD ([1]; mAb) [µg/mL] | IC50 ([3]; read-out: IC50 vs. B.1 Mean ± SD) [µM] | IC90 ([3]; read-out: IC90 vs. B.1 Mean ± SD) [µM] | CC50 ([1]; read-out: CC50 Mean ± SD, DAA) [µM] |
| --- | --- | --- | --- | --- | --- | --- | --- | --- |
| CCC(CC)COC(=O)[C@H](C)N[P@](=O)(OC[C@H]1O[C@@](C#N)(c2ccc3c(N)ncnn23)[C@H](O)[C@@H]1O)Oc1ccccc1 [RDV, remdesivir, reference compound] | 4.2 ± 0.6 | 17.2 ± 0.2 |  |  |  |  |  |  |
| sotrovimab |  |  | 1.718 ± 0.594 | >2.4 | >2.4 |  |  |  |
| CC(C)(C)[C@H](NC(=O)C(F)(F)F)C(=O)N1C[C@H]2[C@@H]([C@H]1C(=O)N[C@H](C#N)C[C@@H]1CCNC1=O)C2(C)C [NRM, nirmatrelvir, reference compound] | 2.9 ± 0.2 | 40.7 ± 4 |  |  |  |  |  |  |
| tixagevimab |  |  | 0.305 ± 0.071 | >0.36 | >0.36 |  |  |  |
| O=c1nc(NO)ccn1[C@@H]1O[C@H](CO)[C@@H](O)[C@H]1O [EIDD-1931, reference compound] | 3.1 ± 0.4 |  |  |  |  | 2.4 ± 0.4 | 2.5 ± 0.1 | 43.3 ± 6 |
| cilgavimab |  |  | 1.385 ± 0.862 | >0.36 | >0.36 |  |  |  |
| bebtelovimab |  |  | 0.089 ± 0.009 | >0.06 | >0.06 |  |  |  |
